{"source": "BindingDB's records for doi:10.7270/Q2QV3JZ2", "about": "(Vanderbilt Screening Center for GPCRs, Ion Channels and …, 2009)", "note": "pEC50: −log10 of the molar value.", "data": [{"molecular_target": "T1, Solute carrier family 12 member 5 (Homo sapiens, UniProt Q9H2X9)", "T1 sequence (Q9H2X9 whole entry)": "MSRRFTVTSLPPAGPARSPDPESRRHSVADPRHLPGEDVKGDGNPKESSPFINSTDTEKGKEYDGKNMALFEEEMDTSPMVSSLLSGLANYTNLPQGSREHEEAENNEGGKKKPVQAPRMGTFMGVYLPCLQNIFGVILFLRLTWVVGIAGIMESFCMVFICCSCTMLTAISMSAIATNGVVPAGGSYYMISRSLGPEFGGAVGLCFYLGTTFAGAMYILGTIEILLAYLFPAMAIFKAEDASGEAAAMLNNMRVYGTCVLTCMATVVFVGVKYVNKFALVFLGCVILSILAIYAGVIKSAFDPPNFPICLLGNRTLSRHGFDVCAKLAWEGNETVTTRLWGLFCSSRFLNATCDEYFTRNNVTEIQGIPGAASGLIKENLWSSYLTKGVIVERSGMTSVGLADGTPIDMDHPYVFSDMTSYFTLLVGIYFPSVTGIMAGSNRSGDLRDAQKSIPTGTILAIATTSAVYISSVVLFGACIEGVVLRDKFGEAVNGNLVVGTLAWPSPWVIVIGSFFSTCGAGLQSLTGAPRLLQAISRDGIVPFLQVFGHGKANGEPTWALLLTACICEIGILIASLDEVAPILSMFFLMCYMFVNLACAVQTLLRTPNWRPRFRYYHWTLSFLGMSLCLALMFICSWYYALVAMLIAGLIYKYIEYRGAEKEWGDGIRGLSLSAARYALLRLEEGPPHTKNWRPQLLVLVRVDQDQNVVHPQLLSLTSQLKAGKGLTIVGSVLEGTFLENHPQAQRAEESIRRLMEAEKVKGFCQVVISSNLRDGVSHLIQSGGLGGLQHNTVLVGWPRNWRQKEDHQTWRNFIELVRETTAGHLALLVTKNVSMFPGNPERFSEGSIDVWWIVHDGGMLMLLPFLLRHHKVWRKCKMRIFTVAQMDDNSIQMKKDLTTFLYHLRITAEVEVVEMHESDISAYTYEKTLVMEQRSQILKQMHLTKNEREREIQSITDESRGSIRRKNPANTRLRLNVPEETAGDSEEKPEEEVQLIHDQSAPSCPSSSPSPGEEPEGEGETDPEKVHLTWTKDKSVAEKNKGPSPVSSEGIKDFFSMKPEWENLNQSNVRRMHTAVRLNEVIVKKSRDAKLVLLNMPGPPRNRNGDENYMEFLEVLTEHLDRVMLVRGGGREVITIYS", "assay": "KCC2 cotransport modulators, dose response, cell-based, assay 2 (AID 1723)", "settings": "not given", "values": [{"compound": "COc1cc(NC(=S)NC(=O)c2ccco2)ccc1NC(=O)C(C)C", "note": "[MLS000672338]", "pEC50": 4.92}, {"compound": "O=C(C=Cc1ccccc1)CC(=O)c1ccccc1O", "note": "[MLS000627068]", "pEC50": 4.63}, {"compound": "CC(C)c1ccc(OCC(=O)NNC(=O)c2cnccn2)cc1", "note": "[MLS000332605]", "pEC50": 4.77}, {"compound": "Cc1[nH]n2c(=O)cc(C(C)C)nc2c1-c1ccccc1", "pEC50": 4.79}, {"compound": "NC(=S)NN=C1C(=O)N(Cc2ccc(F)cc2)c2ccccc21", "note": "[1-[(Z)-[1-[(4-fluorophenyl)methyl]-2-oxidanylidene-indol-3-ylidene]amino]thiourea]", "pEC50": 5.24}, {"compound": "Fc1cccc(F)c1C=NNC(=S)Nc1cccnc1", "note": "[1-[(2,6-difluorobenzylidene)amino]-3-(3-pyridyl)thiourea]", "pEC50": 4.60}, {"compound": "O=[N+]([O-])c1ccccc1C=C[CH+][N-]n1c(-c2ccc(Cl)cc2)n[nH]c1=S", "note": "[MLS000555506]", "pEC50": 3.83}, {"compound": "Oc1ccccc1CN=Nc1nc2ccccc2o1", "note": "[(6E)-6-[(1,3-benzoxazol-2-ylhydrazo)methylidene]-1-cyclohexa-2,4-dienone]", "pEC50": 4.31}, {"compound": "O=c1c2ccccc2[nH]c(=S)n1CCN1CCC(=C(c2ccc(F)cc2)c2ccc(F)cc2)CC1", "note": "[SMR000058550]", "pEC50": 5.06}, {"compound": "O=C(NC(=S)Nc1nc(-c2cccc([N+](=O)[O-])c2)cs1)c1ccccc1Cl", "note": "[2-chloranyl-N-[[4-(3-nitrophenyl)-1,3-thiazol-2-yl]carbamothioyl]benzamide]", "pEC50": 4.13}, {"compound": "COC(=O)c1sccc1NC(=S)OC", "note": "[3-(methoxycarbothioylamino)thiophene-2-carboxylic acid methyl ester]", "pEC50": 5.61}, {"compound": "O=[N+]([O-])c1ccc(-c2cn(-c3ccccc3F)c(=S)[nH]2)cc1", "pEC50": 6.29}, {"compound": "Cc1cccc(N2CCN(C(=O)CCCn3c(=S)[nH]c4cc5c(cc4c3=O)OCO5)CC2)c1C", "note": "[MLS000095366]", "pEC50": 5.02}, {"compound": "CCOc1[nH]n(-c2ccccc2)c(=O)c1C=Nc1ccc(F)cc1F", "note": "[(4E)-4-[[[2,4-bis(fluoranyl)phenyl]amino]methylidene]-5-ethoxy-2-phenyl-pyrazol-3-one]", "pEC50": 3.01}, {"compound": "S=c1nc(-c2ccc3c(c2)CCO3)cc[nH]1", "pEC50": 4.95}, {"compound": "S=C(NCCc1ccccc1)NN=Cc1cccc(Cl)c1Cl", "note": "[1-[(2,3-dichlorobenzylidene)amino]-3-phenethyl-thiourea]", "pEC50": 4.83}, {"compound": "Cc1nn(-c2nc3ccccc3[nH]2)c(N)c1-c1ccccc1", "note": "[MLS000063763]", "pEC50": 5.85}, {"compound": "O=C1OC(c2ccc(O)cc2)(c2ccc(O)cc2)c2ccccc21", "pEC50": 5.09}, {"compound": "CCOc1cccc(C(=O)NC(=S)Nc2cccc(C)c2)c1", "note": "[3-ethoxy-N-(m-tolylthiocarbamoyl)benzamide]", "pEC50": 5.88}]}, {"molecular_target": "T1, Solute carrier family 12 member 5", "assay": "KCC2 cotransport modulators, dose response, cell-based, assay 2 (AID 1723)", "settings": "inactive by the depositor's call", "values": [{"compound": "Cc1ccc(-c2ccc(C=NNC(N)=S)o2)cc1", "note": "[1-[[5-(4-methylphenyl)furan-2-yl]methylideneamino]thiourea]", "pEC50": 4.33}]}]}
